Columns and labels:
[1] = test system: HIV-1 WT strain (IIIB); assay: Anti-HIV-1 activity in MT-4 cells, MTT method, WT strain IIIB; format: cell-based; conditions: Human immunodeficiency virus 1, IIIB, MT4, read-out: EC50 IIIB
[2] = test system: HIV-1 L100I; assay: microbe, parasite or virus in culture; format: cell-based; conditions: for RF L100I: resistance fold, EC50 (mutant strain)/EC50 (WT strain); for EC50: Human immunodeficiency virus 1, MT4, read-out: EC50 L100I; for SI L100I: selectivity index, ratio of CC50/EC50
[3] = test system: HIV-1 K103N; assay: microbe, parasite or virus in culture; format: cell-based; conditions: for RF K103N: resistance fold, EC50 (mutant strain)/EC50 (WT strain); for EC50: Human immunodeficiency virus 1, MT4, read-out: EC50 K103N; for SI K103N: selectivity index, ratio of CC50/EC50
[4] = test system: HIV-1 Y188L; assay: microbe, parasite or virus in culture; format: cell-based; conditions: for RF Y188L: resistance fold, EC50 (mutant strain)/EC50 (WT strain); for EC50: Human immunodeficiency virus 1, MT4, read-out: EC50 Y188L; for SI Y188L: selectivity index, ratio of CC50/EC50
[5] = test system: HIV-1 E138K; assay: microbe, parasite or virus in culture; format: cell-based; conditions: for RF E138K: resistance fold, EC50 (mutant strain)/EC50 (WT strain); for EC50: Human immunodeficiency virus 1, MT4, read-out: EC50 E138K; for SI E138K: selectivity index, ratio of CC50/EC50
[6] = test system: HIV-1 F227L + V106A; assay: microbe, parasite or virus in culture; format: cell-based; conditions: for RF F227L + V106A: resistance fold, EC50 (mutant strain)/EC50 (WT strain); for EC50: Human immunodeficiency virus 1, MT4, read-out: EC50 F227L + V106A; for SI F227L + V106A: selectivity index, ratio of CC50/EC50
[7] = target: HIV-1 RT (Human immunodeficiency virus type 1 group M subtype B, UniProt P03366); assay: HIV-1 RT inhibition assay; format: biochemical
[8] = test system: CYP1A2, CYP2C9, CYP2C19, CYP2D6 (range over isoforms); assay: Cytochrome P450 inhibition assay, summary over isoforms; format: in vitro ADME; conditions: human, human liver microsomes
[9] = cited from earlier work
[10] = test system: HIV-1 K103N + Y181C (RES056); assay: microbe, parasite or virus in culture; format: cell-based; conditions: for EC50: Human immunodeficiency virus 1, MT4, read-out: EC50 RES056; for RF RES056: resistance fold, EC50 (mutant strain)/EC50 (WT strain); for SI RES056: selectivity index, ratio of CC50/EC50
[11] = test system: HIV-1 Y181C; assay: microbe, parasite or virus in culture; format: cell-based; conditions: for EC50: Human immunodeficiency virus 1, MT4, read-out: EC50 Y181C; for RF Y181C: resistance fold, EC50 (mutant strain)/EC50 (WT strain); for SI Y181C: selectivity index, ratio of CC50/EC50
[12] = Cytotoxicity in mock-infected MT-4 cells, MTT method; format: cell-based; conditions: human

SMILES	EC50 [1] [nM]	RF L100I [2]	RF K103N [3]	RF Y188L [4]	RF E138K [5]	RF F227L + V106A [6]	IC50 [7] [nM]	EC50 [10] [nM]	RF RES056 [10]	SI RES056 [10]	EC50 [2] [nM]	SI L100I [2]	EC50 [3] [nM]	SI K103N [3]	EC50 [11] [nM]	RF Y181C [11]	EC50 [4] [nM]	EC50 [5] [nM]	EC50 [6] [nM]	CC50 at 5 days [12] [nM]	further results
Cc1cc(/C=C/C#N)cc(C)c1Nc1ccnc(Nc2ccc(C#N)cc2)n1 [RPV, rilpivirine, reference compound]	1 ± 0.27	1.5	1.3	80	5.8	82	118 ± 27	–	–	–	–	–	–	–	–	–	–	–	–	–	IC50 at 10 min [8]: 335 to 9110 nM; Water solubility (Sol.) [9]: < 1 µg/mL
Cc1cc(C#N)cc(C)c1Oc1nc(Nc2ccc(C#N)cc2)nc2c1S(=O)(=O)CCC2 [compound 16b, 4-((2-((4-Cyanophenyl)amino)-5,5-dioxido-7,8-dihydro-6H-thiopyrano[3,2-d]pyrimidin-4-yl)oxy)-3,5-dimethylbenzonitrile]	1.44 ± 0.17	15.1	1.6	8.5	7.6	26.3	27 ± 11	49.1 ± 14	34.1	381	21.8 ± 5.65	858	2.3 ± 0.15	8130	10.4 ± 1.44	7.2	12.3 ± 2.27	10.9 ± 0.32	37.9 ± 21.3	18700 ± 8010	SI Y181C [11]: 1798; SI Y188L [4]: 1520; SI E138K [5]: 1716; SI F227L + V106A [6]: 493
Cc1cc(/C=C/C#N)cc(C)c1Oc1nc(Nc2ccc(C#N)cc2)nc2c1SCCC2 [15b, (E)-4-((4-(4-(2-Cyanovinyl)-2,6-dimethylphenoxy)-7,8-dihydro-6H-thiopyrano[3,2-d]pyrimidin-2-yl)amino)benzonitrile]	3.18 ± 1.21	2.3	2.0	7.3	6.8	8.8	101 ± 12	23.5 ± 14.7	7.4	208	7.26 ± 0.51	674	6.42 ± 0.4	762	11.1 ± 3.39	3.5	23.3 ± 0.48	21.7 ± 7.55	27.9 ± 9.17	4890 ± 620	Times greater activity than ETR, L100I ([2]; ratio of EC50 values vs ETR): 1.3 times; SI Y181C [11]: 441; SI Y188L [4]: 210; SI E138K [5]: 225; SI F227L + V106A [6]: 175
O=C1Nc2ccc(Cl)cc2[C@@](C#CC2CC2)(C(F)(F)F)O1 [EFV, efavirenz, reference compound]	2.67 ± 1.73	–	–	–	–	–	–	114 ± 55.6	–	–	57.4 ± 45.9	–	99.2 ± 56.8	–	4.94 ± 1.75	–	93.2 ± 58.9	4.67 ± 1.38	77.4 ± 55.9	> 6340	–

— paper PMC10935503 (Acta Pharmaceutica Sinica. B, 2023)
